# Data from patent US9150581B2, “Nicotinic receptor compounds” (priority 2011, dated 2015).
# Values joined by “and” are separate entries in the source; they are usually repeats but may differ in a detail not shown here. Equal values may be shown once. Where a name gives a salt, the structure may show the parent alone. Read-outs that look alike come from different tables or passages of the source.
# Legend:
# Male Sprague-Dawley rats [1] = assay type: in vivo, rat; conditions: for Nicotine-like discriminative stimulus effects: compound alone (FIG. 3); for Shift of discriminative stimulus dose-effect curve of small dose of nicotine: small training dose of nicotine
# Procedure: A drug discrimination assay was performed to measure the relevant effects of nicotine as it influences tobacco use and abuse. In a drug discrimination assay, food restricted rates are trained to make one response (select one of two nose-poke apertures in the test chamber) following administration of a particular drug, and a different response (select the other aperture) following administration of saline. The appropriate response is followed by delivery of food, and there is no cue as to which aperture will result in food delivery other than the presence or absence of the drug. Once trained, the animals respond on the “drug-associated” aperture following drug administration and on the “saline-associated” aperture following saline administration. In addition, administration of drug doses that are smaller than the training dose produce intermediate responses on the drug-associated aperture such that monotonically increasing dose-response curves can be generated in drug discrimination assays.
# Male Sprague-Dawley rats were obtained from Harlan, Inc (Indianapolis, Ind.) and singly housed in polycarbonate cages with water continuously available. All rats weighed approximately 280-290 gms at the start of the experiment. A food-restricted diet of Purina rodent food allowed the animals to grow but maintain motivation to respond to earn food pellets. A 12 hr light-dark cycle turned the lights on at 7:00 am. Standard operant conditioning chambers (ENV-008, Med-Associates, St Albans, Vt.) were used for establishing and evaluating the nicotine discrimination. Each chamber contains two nose-poke devices with apertures containing yellow LED lights on either side of a dipper capable of delivering 50 μl of fluid into a third opening.
# Initially, each rat was trained to insert its nose into one of the apertures and received vanilla-flavored Ensure as a consequence. During discrimination training, rats designated in the small dose group were injected with either saline or 0.32 mg/kg of nicotine. Ten consecutive responses on the appropriate lever (one side following saline administration; the other side following nicotine administration) was followed by presentation of the Ensure for 10 s, followed by a 10 s timeout. Selection of the incorrect lever, and completion of the 10 consecutive responses in this lever results in a 10 s timeout. Criteria for learning the discrimination are 1) responding on the first FR of the session is completed on the injection appropriate aperture; 2) >85% of the total session responses are made on the injection-appropriate aperture.
# Each session was divided into several components of 25 min duration. Following an injection, the first five minutes of each component were black out, and the stimulus lights were illuminated for the remaining 20 min, during which injection-appropriate responses were reinforced.
# One to four components comprised daily sessions Animals were injected with saline or nicotine prior to the start of the session, or following one or more of the […] components. Possible injection conditions were (S=saline, N=nicotine) S—S—S—S; N; S—N; S—S—N; S—S—S—N. Nicotine administration is always given in the final component if it is given at all.
# If a potential antagonist was given, it was administered prior to the session at a time determined by earlier studies to be sufficient for peak effects to be established. The session components then comprised increasing doses of nicotine, each given before consecutive blackout periods. No more than two antagonist sessions were given each week, and once each month a nicotine dose-response curve was determined to assure no changes in sensitivity to nicotine. Full generalization to the nicotine discriminative cue is defined by >85% responding on the drug-associated aperture and completing at least one FR.
# A second, large-nicotine trained group of rats were treated in an identical manner except that their training dose of nicotine is 1.78 mg/kg. […]
# Male Sprague-Dawley rats [2] = conditions: for Blockade of nicotine's hypertensive effects: given prior to 1.78 mg/kg nicotine, RTI-154 10 mg/kg, DHβE 5.6 mg/kg
# Procedure: Male Sprague-Dawley rats (approximately 300 g) were obtained from Harlan, Inc. (Indianapolis, Ind.) and group-housed upon arrival. Food and water were freely available for all rats at all times. Housing and experimental rooms were maintained on a 12 h light/dark cycle with lights on at 7:00 AM with an average temperature of 21° C.
# Surgical Procedures. To measure changes in heart rate and mean arterial pressure, rats were implanted with telemetric transmitters (TA11PAC40 or TL11M2-C50-PXT, Data Sciences International, Transoma Medical Inc., St. Paul, Minn., USA) under ketamine (90 mg/kg, i.p.) and xylazine (10 mg/kg, i.p.) anesthesia. An incision is made in the skin approximately 1 in to the left or right of the spine and over the left or right thigh to expose the femoral artery. The transmitter is placed into the incision on the dorsal side and into a subcutaneous pocket (made by separating the connective tissue between the skin and muscle) on the side of the abdomen. This positioning prevents the rats from manipulating the incision site and gaining access to the transmitter. The catheter extending from the base of the transmitter is threaded subcutaneously, placed 3 cm into the femoral artery, and secured with suture. Incisions were closed with 5.0 Ethicon nylon monofilament suture. Following surgery, rats were singly-housed and monitored for at least 7 days for signs of recovery (normal eating, drinking, and defecating patterns) prior to experimentation. All rats continued to have free access to food and water at all times.
# Telemetry System. The system consists of battery-operated transmitters surgically implanted (described above), Physiotel® receivers, the DSI Data Exchange Matrix, and the Dataquest A.R.T. system, which collects and stores digital data from the receiver onto a computer (Data Sciences International, Transoma Medical Inc., St. Paul, Minn., USA). Blood pressure and heart rate data were analyzed by the Dataquest A.R.T. Gold Analysis 3.01 software.
# At the start of an experiment, rats' home cages were placed on top of the receivers, and baseline data was collected for at least 1 h to allow heart rate and blood pressure to return to resting levels. All rats were given a saline injection to ensure that they are habituated to the injection and handling procedure on the test day. After heart rate and blood pressure returned to resting levels again, rats were injected with a treatment, consisting either of a single drug dose or a pretreatment drug administered 15 min prior to a test drug. Data was collected for at least 2 h following the last injection. All injections were administered subcutaneously (s.c.) in a volume of 1 ml/kg.
# Each rat was used to evaluate multiple experimental conditions, such that each rat may receive as many as 4-6 different treatments, one per week with at least 6 days between drug exposures. […] Once the rats weigh approximately 450 g (body weight at time of transmitter implant: 300-350 g), the rat is no longer used for experiments, and the transmitter is removed.
# Data were collected throughout baseline, before, and after drug treatments. The analysis program calculated an average heart rate and mean arterial pressure (MAP) every 10 sec. These 10 secepochs are then averaged over 1 min per rat, and data from at least 6 rats were averaged for each treatment group.
# Male ICR adult mice = assay type: in vivo, mouse
# α4β2 nAChR = α4β2 nAChR (Rattus norvegicus (Rat), UniProt P09483+P12390); experiment: Inhibition of [3H]epibatidine binding at the α4β2 nAChR in male rat cerebral cortex; conditions: αβ [3H]Epibatidine (Ki, nM)
# mice [3] = experiment: Antagonism of nicotine antinociception, hot-plate; assay type: in vivo, mouse; conditions: for Antagonism Hot-Plate, % at dose: before nicotine 2.5 mg/kg sc; for AD50 Hot-Plate: mice pretreated sc 10 min before nicotine 2.5 mg/kg sc
# Procedure: (§1) In the tail-flick method of D'Amour and Smith, (D'Amour, F. E.; Smith, D. L. J. Pharmacol. Exp. Ther. 1941, 72, 74-79), the tail is exposed to a heat lamp and the amount of time taken for the animal to move (flick) its tail away from the heat is recorded. […] Mice were placed into a 10-cm wide glass cylinder on a hot plate (Thermojust Apparatus) maintained at 55.0° C. Two control latencies at least 10 min apart were determined for each mouse. […] The reaction time was scored when the animal jumped or licked its paws. The mice were tested 5 min after subcutaneous (sc) injections of nicotinic ligands for the dose-response determination. Antinociceptive response was calculated as percentage of maximum possible effect (% MPE, where % MPE=[(test−control)/(maximum latency−control)×100]).
# (§2) Nicotine was administered at a dose of 2.5 mg/kg, sc (an ED84 dose), and mice were tested 5 min later. ED50 and AD50 values with 95% confidence limits were determined.
# mice [4] = experiment: Hypothermia (rectal temperature); assay type: in vivo, mouse; conditions: sc; for Hypothermia, % effect at dose: @ 10 mg/kg
# Procedure: (§3) Interruptions of the photocell beams (two banks of eight cells each) were then recorded for the next 10 min. Data were expressed as number of photocell interruptions. Rectal temperature was measured by a thermistor probe (inserted 24 mm) and digital thermometer (Yellow Springs Instrument Co., Yellow Springs, Ohio). […] The difference in rectal temperature before and after treatment was calculated for each mouse. The ambient temperature of the laboratory varied from 21 to 24° C. from day to day.
# mice [5] = experiment: Tail-flick test (antinociception); assay type: in vivo, mouse; conditions: @ 10 mg/kg, sc
# Procedure: as §1
# mice [6] = experiment: Spontaneous activity (photocell activity cages); assay type: in vivo, mouse; conditions: sc
# Procedure: as §3
# mice [7] = experiment: Antagonism of nicotine antinociception, tail-flick; assay type: in vivo, mouse; conditions: mice pretreated sc 10 min before nicotine 2.5 mg/kg sc
# Procedure: as §1, §2
# α7 nAChR = α7 nAChR (Rattus norvegicus (Rat), UniProt Q05941); assay type: binding; conditions: read-out: α7 [125I]iodoMLA (Ki)
# mice [8] = experiment: Hot-plate test (antinociception); assay type: in vivo, mouse; conditions: @ 10 mg/kg, sc
# Procedure: as §1
# [9] = listed as (±)-154, hydrochloride
# α4β2 nAChR, sequence (P09483 31-630 limits assumed): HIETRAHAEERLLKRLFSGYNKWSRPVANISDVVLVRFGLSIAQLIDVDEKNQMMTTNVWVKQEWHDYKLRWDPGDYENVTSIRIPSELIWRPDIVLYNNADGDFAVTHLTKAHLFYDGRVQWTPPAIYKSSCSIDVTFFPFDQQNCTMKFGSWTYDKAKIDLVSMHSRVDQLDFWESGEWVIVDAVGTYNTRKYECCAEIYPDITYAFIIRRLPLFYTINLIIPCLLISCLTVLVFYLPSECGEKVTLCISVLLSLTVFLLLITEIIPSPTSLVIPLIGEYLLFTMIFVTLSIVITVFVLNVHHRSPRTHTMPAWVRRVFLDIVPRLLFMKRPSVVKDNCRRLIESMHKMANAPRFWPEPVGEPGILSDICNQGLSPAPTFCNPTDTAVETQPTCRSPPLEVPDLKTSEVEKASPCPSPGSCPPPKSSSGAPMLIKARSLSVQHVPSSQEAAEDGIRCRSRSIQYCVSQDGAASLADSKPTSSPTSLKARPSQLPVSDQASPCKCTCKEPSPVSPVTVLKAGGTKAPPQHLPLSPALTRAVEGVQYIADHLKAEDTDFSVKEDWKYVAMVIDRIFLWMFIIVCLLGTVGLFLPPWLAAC
# α4β2 nAChR, sequence (P12390 25-500 limits assumed): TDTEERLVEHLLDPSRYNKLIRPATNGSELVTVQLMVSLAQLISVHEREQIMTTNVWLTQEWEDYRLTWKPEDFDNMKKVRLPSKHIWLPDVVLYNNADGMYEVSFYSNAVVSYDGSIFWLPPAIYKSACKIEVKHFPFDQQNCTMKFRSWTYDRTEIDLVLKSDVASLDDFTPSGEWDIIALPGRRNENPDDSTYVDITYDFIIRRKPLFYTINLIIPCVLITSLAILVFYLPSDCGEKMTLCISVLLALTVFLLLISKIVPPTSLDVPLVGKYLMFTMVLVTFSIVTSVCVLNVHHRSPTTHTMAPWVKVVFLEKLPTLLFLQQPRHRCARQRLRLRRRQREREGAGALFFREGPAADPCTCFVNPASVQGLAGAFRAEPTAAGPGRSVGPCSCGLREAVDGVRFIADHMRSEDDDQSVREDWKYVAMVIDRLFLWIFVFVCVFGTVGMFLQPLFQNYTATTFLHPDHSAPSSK
# α7 nAChR, sequence (Q05941 23-502 limits assumed): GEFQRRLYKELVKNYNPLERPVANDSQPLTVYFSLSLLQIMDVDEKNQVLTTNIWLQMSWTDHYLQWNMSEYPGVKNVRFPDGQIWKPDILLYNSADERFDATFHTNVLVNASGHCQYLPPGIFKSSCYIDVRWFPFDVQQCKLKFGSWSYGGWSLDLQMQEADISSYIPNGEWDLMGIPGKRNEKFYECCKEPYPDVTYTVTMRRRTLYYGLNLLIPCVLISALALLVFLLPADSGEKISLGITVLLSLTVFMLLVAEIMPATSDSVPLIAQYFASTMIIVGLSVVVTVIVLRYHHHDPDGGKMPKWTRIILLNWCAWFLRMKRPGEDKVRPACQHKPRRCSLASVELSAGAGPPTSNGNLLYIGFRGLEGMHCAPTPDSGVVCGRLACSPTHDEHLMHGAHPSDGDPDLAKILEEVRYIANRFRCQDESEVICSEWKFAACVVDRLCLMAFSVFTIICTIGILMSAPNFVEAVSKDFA
compound,measurement,setting,value
"Clc1ccc(C2CC3CCC2N3)cn1 (single isomer, unassigned; (-)) [(−)-epibatidine, epibatidine]",Nicotine-like discriminative stimulus effects,Male Sprague-Dawley rats [1],extremely potent full nicotine-like agonist
same,Effect on blood pressure,"Male Sprague-Dawley rats [2]; rats, s.c., compound alone",substantial increases in blood pressure
α-conotoxin AUIB,Blockade of development of nicotine reward in the CPP test,"Male ICR adult mice; mouse, in vivo",blocked the development of nicotine reward
"CS(=O)(=O)c1ccc(-c2cc(C3CC4CCC3N4)cnc2F)cc1 (centres unmarked) [RTI-7527-154, 2-(5-(4-Methanesulphonyl-phenyl)-6-fluoro-pyridin-3-yl)-7-aza-bicyclo[2.2.1]heptane hydrochloride]",Ki,α4β2 nAChR,0.17 nM and 0.08 nM
same,Effect on rate-decreasing effects of nicotine,Male Sprague-Dawley rats [1],"did not, however, alter the potency of nicotine"
same,Effect on rates of responding,Male Sprague-Dawley rats [1]; compound alone,did not suppress ongoing rates of responding
same,Nicotine-like discriminative stimulus effects,Male Sprague-Dawley rats [1],no efficacy
same,"Antagonism Hot-Plate, % at dose",mice [3]; @ 5000 μg/kg,40% @
same,AD50 Hot-Plate,mice [3],2.6 mg/kg
same,"Hypothermia, % effect at dose",mice [4]; [9],1% @ 10 and 1.2% @ 10
same,Blockade of nicotine's hypertensive effects,Male Sprague-Dawley rats [2]; rats,did not block
same,Cardiovascular effects (heart rate and mean arterial pressure),"Male Sprague-Dawley rats [2]; rats, s.c., compound alone",no cardiovascular effects
same,"Tail-Flick, % effect at dose",mice [5]; [9],6% @ 10 and 5% @ 10
same,Blockade of development of nicotine-induced CPP,"Male ICR adult mice; mouse, in vivo",totally blocked
same,Preference or aversion induced by compound itself in CPP,"Male ICR adult mice; mouse, in vivo",did not induce significant preference or aversion
same,"Spontaneous Activity, % effect at dose",mice [6]; @ 5 mg/kg,0% @ 5;
"CO[C@H]1CC=C2CCN3CCC4=C(CC(=O)OC4)[C@]23C1 [DHβE, dihydro-beta-erythroidine]",Effect on rate-decreasing effects of nicotine,Male Sprague-Dawley rats [1],did not antagonize
same,Shift of discriminative stimulus dose-effect curve of small dose of nicotine,Male Sprague-Dawley rats [1],parallel rightward shifts
same,Shift of large dose-nicotine dose-response curve,Male Sprague-Dawley rats [1]; training dose of nicotine 1.78 mg/kg,much less robust rightward shifts
same,Blockade of nicotine's hypertensive effects,Male Sprague-Dawley rats [2]; rats,did not block
same,Cardiovascular effects (heart rate and mean arterial pressure),"Male Sprague-Dawley rats [2]; rats, s.c., compound alone",no cardiovascular effects
same,Effect on blood pressure,"Male Sprague-Dawley rats [2]; rats, s.c., compound alone",no changes in blood pressure
"c1cnc2cc3c(cc2n1)[C@@H]1CNC[C@H]3C1 [varenicline, reference compound]",AD50 Tail-Flick,mice [7],0.0002 mg/kg
same,Ki,α7 nAChR,32.5 nM
same,Nicotine-like discriminative stimulus effects,Male Sprague-Dawley rats [1],nearly full nicotine-like discriminative stimulus effects
same,"Hot-Plate, % effect at dose",mice [8],10% @ 10
same,AD50 Hot-Plate,mice [3],0.47 mg/kg
same,ED50,mice [4]; Mus musculus,2.8 mg/kg
same,Effect on blood pressure,"Male Sprague-Dawley rats [2]; rats, s.c., compound alone",substantial increases in blood pressure
same,"Tail-Flick, % effect at dose",mice [5],11% @ 10
same,Preference or aversion induced by compound itself in CPP,Male ICR adult mice; compound alone at the doses used,without a significant effect on its own
same,Blockade of nicotine CPP,"Male ICR adult mice; mouse, s.c. 10 min prior to nicotine 0.5 mg/kg, several doses",dose-dependently blocked nicotine CPP
same,ED50,mice [6]; Mus musculus,2.1 mg/kg
"Fc1ncc(C2CC3CCC2N3)cc1-c1ccc(C(F)(F)F)cc1 (centres unmarked) [RTI-7527-153, 2-(5-(4-Trifluoromethane-phenyl)-6-fluoro-pyridin-3-yl)-7-aza-bicyclo[2.2.1]heptane hydrochloride]",Ki,α4β2 nAChR,0.44 ± 0.05 nM
same,AD50 Tail-Flick,mice [7],0.038 mg/kg
same,"Hot-Plate, % effect at dose",mice [8],6% @ 10
same,AD50 Hot-Plate,mice [3],6 mg/kg
same,"Hypothermia, % effect at dose",mice [4],0% @ 10
same,"Tail-Flick, % effect at dose",mice [5],4% @ 10
same,"Spontaneous Activity, % effect at dose",mice [6]; @ 10 mg/kg,5% @ 10
"CNC1(C)C2CCC(C2)C1(C)C (centres unmarked) [Mecamylamine, mecamylamine]",Effect on rate-decreasing effects of nicotine,Male Sprague-Dawley rats [1],parallel rightward shift
same,Shift of discriminative stimulus dose-effect curve of small dose of nicotine,Male Sprague-Dawley rats [1],rightward and downward shift
"N#Cc1ccc(-c2cc(C3CC4CCC3N4)cnc2F)cc1 (centres unmarked) [RTI-7527-155, 2-(5-(4-Cyano-phenyl)-6-fluoro-pyridin-3-yl)-7-aza-bicyclo[2.2.1]heptane hydrochloride]",Ki,α4β2 nAChR,0.19 ± 0.012 nM
same,AD50 Tail-Flick,mice [7],0.006 mg/kg
same,"Hot-Plate, % effect at dose",mice [8],18% @ 10
same,"Antagonism Hot-Plate, % at dose",mice [3]; @ 10000 μg/kg,24% @
same,"Hypothermia, % effect at dose",mice [4],0% @ 10
same,"Tail-Flick, % effect at dose",mice [5],4% @ 10
same,"Spontaneous Activity, % effect at dose",mice [6]; @ 10 mg/kg,0% @ 10
CN1CCCC1c1cccnc1 (centres unmarked) [nicotine],Effect on blood pressure,"Male Sprague-Dawley rats [2]; rat, in vivo, sc",substantial increases in blood pressure
